Data as given in paper PMC6969166, “The molecular basis of pyrazinamide activity on Mycobacterium tuberculosis PanD” (Nature Communications, 2020).
“And” between values parts separate entries of the source, which are not always exact repeats. Identical values can stand only once. “Also recorded” adds a separate entry of the source. Like-named read-outs stand apart in the source and are kept apart here.

Tests used:
Mtb PanD [1] = molecular target: T1, Mtb PanD (Mycobacterium tuberculosis, UniProt P9WIL3); experiment: biochemical; type: biochemical; conditions: for remaining activity at 312.5 µM / remaining activity at 625 µM / remaining activity at 1250 µM / remaining activity at 2500 µM / remaining activity at 5000 µM / remaining activity at 10000 µM / remaining activity at 20000 µM: read-out: Fractional Activity
T1 construct: The active protein consists of a β chain (Met1-Gly24) and an α chain (Pyr25 to ILE115); we observed the processed active enzyme after cleavage between Gly24 and Ser25; inferred from the pET21c(+) vector and HisTrap purification); made in house; host or cells: Escherichia coli BL21(DE3)
T1 sequence (P9WIL3 1-24): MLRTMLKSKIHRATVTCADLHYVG
T1 sequence (P9WIL3 25-139): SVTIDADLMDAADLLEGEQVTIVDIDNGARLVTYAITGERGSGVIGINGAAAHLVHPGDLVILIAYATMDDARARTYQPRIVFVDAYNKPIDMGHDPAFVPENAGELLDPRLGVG

Mtb PanD [2] = molecular target: T1, Mtb PanD; experiment: Isothermal titration calorimetry, wild type; type: binding; conditions: for ΔH / ΔS: mean
Protocol: ITC experiments were performed using a MicroCal iTC200 (GE). Both protein and ligands were in a buffer of 100 mM Tris, pH 7.5. The protein concentration in the cell was 0.5 mM, and the ligand concentration was 20 mM. The titration was performed at 20 °C. The data were analyzed with the Origin 7.0 software and fitted with a single-site binding model.

Mtb cultures = conditions: cited from earlier work
PanD = system: PanD; set-up: method as in PMID 23029336; conditions: cited from earlier work

Row | SMILES | inhibition of Mtb PanD (Mtb PanD [1]) | remaining activity at 312.5 µM (Mtb PanD [1]; compound conc 0.3125 mM) [%] | remaining activity at 625 µM (Mtb PanD [1]; compound conc 0.625 mM) [%] | remaining activity at 1250 µM (Mtb PanD [1]; compound conc 1.25 mM) [%] | remaining activity at 2500 µM (Mtb PanD [1]; compound conc 2.5 mM) [%] | remaining activity at 5000 µM (Mtb PanD [1]; compound conc 5 mM) [%] | remaining activity at 10000 µM (Mtb PanD [1]; compound conc 10 mM) [%] | remaining activity at 20000 µM (Mtb PanD [1]; compound conc 20 mM) [%] | other results
1 | O=C(O)c1cnc(Cl)cn1 [5-Cl-POA] | no inhibition | 92.8 | 89.8 | 80.2 | 67.7 | 52.9 | 51.6 | 44.3 | 
2 | O=C(O)c1cncc(Cl)n1 [6-Cl-POA, 6-chloropyrazinoic acid] | inhibitor of PanD | 81.8 | 69.3 | 51.7 | 35 | 22.9 | 19.8 | 8.91 | Ki (Mtb PanD [1]): 1000 µM; mode of inhibition (Mtb PanD [1]): competitive; Kd (Mtb PanD [2]; ITC, 20 °C, 100 mM Tris pH 7.5, single-site model, mean of separate experiments): 1090 µM; ΔH (Mtb PanD [2]; ITC, 20 °C, 100 mM Tris pH 7.5): −3300 (100) cal mol^−1; ΔS (Mtb PanD [2]; ITC, 20 °C, 100 mM Tris pH 7.5): 2.2 (0.5) cal mol^−1 deg^−1; Kd (Mtb PanD [2]; ITC, wt, single experiments): 1090 µM and 1140 µM and 1050 µM; ΔS (cal/mol /deg) (Mtb PanD [2]; ITC, wt, single experiments): 2.27 cal/mol /deg and 1.7 cal/mol /deg and 2.71 cal/mol /deg
3 | O=C(O)c1cccnc1 [NA, nicotinic acid] | lack of inhibitory activity; also recorded: None of these compounds inhibited |  |  |  |  |  |  |  | remaining activity at 312.5 µM (Mtb PanD [1]): 101%; remaining activity at 625 µM (Mtb PanD [1]): 98.1%; remaining activity at 1250 µM (Mtb PanD [1]): 96.6%; remaining activity at 2500 µM (Mtb PanD [1]): 90.2%; remaining activity at 5000 µM (Mtb PanD [1]): 87.2%; remaining activity at 10000 µM (Mtb PanD [1]): 82.2%; remaining activity at 20000 µM (Mtb PanD [1]): 61.4%; binding in ITC (Mtb PanD [2]; 100 mM Tris pH 7.5): no binding
4 | O=C(O)c1cnccn1 [POA, pyrazinoic acid] |  | 81.2 | 66.4 | 52.9 | 34.8 | 21.6 | 13.4 | 7.44 | mode of inhibition (Mtb PanD [1]): competitive with aspartate; ΔH (Mtb PanD [2]; ITC, 20 °C, 100 mM Tris pH 7.5): -4200 (200) cal mol^−1; ΔS (Mtb PanD [2]; ITC, 20 °C, 100 mM Tris pH 7.5): 0.1 (0.7) cal mol^−1 deg^−1
5 | NC(=O)c1cnccn1 [PZA, pyrazinamide] | lack of inhibitory activity; also recorded: None of these compounds inhibited | 104 | 105 | 101 | 104 | 101 | 98.7 | 91.5 | minimal inhibitory concentration (Mtb cultures; mildly acidic (<pH6), ref 2 (peer review file list)): 0.4-1.6 mM and 50 – 200 µg/ml; minimum inhibitory concentrations (Mtb cultures; mildly acidic pH): 400 to 1600 µM; activity against Mtb cultures (Mtb cultures; normal media): not active
6 | N[C@@H](CC(=O)O)C(=O)O [aspartate, L-aspartate] |  |  |  |  |  |  |  |  | Km (Mtb PanD [1]): 1080 µM
7 | O=C(O)C(O)C(O)C(=O)O (stereo not shown) [tartrate] |  |  |  |  |  |  |  |  | inhibitor of the enzyme (PanD): known inhibitor
